Laboratory results as given in patent US9567301B2, “Pyrrol-1-yl benzoic acid derivatives useful as myc inhibitors” (Whitehead Institute for Biomedical Research, priority 2012, dated 2017).
Where two headings read alike, the source gives them in different places.

Experiments:
[1] = test system: Jurkat cells; assay: Cell viability assay (ATPlite), Jurkat; type: cell-based, human; conditions: class symbols, NA: not active under assay conditions
Protocol: (§1) This assay was used for the H2171 and MM1S cell data shown in Table 2, and for the Jurkat (an immortalized line of human T lymphocyte cells), Ly1 (OCI-Ly1 human non-Hodgkin lymphoma cell line), Ly4 (OCI-Ly4 human non-Hodgkin lymphoma cell line), H2172 (NCI-H2172 human non-small cell lung cancer cell line), and CA-46 (a human Burkitt's lymphoma cell line) cell data shown in Table 3 and FIG. 12. Cells were counted and adjusted to 60,000 cells/mL. Using a Biotek EL406, 50 μL of cells are media were distributed into 384 well white plates from Thermo. Immediately after plating, compound in DMSO was distributed to plates. For large plate sets, cells were returned to 37° C. incubator while not in use.
(§2) Compounds were added to plates using a 100 nL 384 well pin transfer manifold on a Janus workstation. Stocks were arrayed in 10 point quadruplicate dose response in DMSO stock in 384 well Greiner compound plates. After addition of compound, plates were incubated for three days in a 37° C. incubator.
(§3) Cell viability was read out using ATPlite from Perkin Elmer. Plates were removed from the incubator and brought to room temperature prior to use. Lyophilized powder was resuspended in lysis buffer and diluted 1:2 with DI water. 25 μL of this solution was added to each well using the Biotek liquid handler. Plates were sealed with adherent aluminum seals prior to vortexing and spinning down at 1000 g for 1 minute. Plates were incubated for 15 minutes at room temperature before signal was read on an Envision Plate Reader.

[2] = molecular target: c-Myc/Max/Ebox DNA (Homo sapiens, UniProt P01106); assay: c-Myc/Max/Ebox DNA AlphaScreen assay; type: binding; parameters: An exemplary assay uses full-length human c-Myc and Max proteins; his6 (cleaved yes); made in house
Protocol: This protocol was used to generate the biochemical data in Table 2 and FIG. 11. The primary AlphaScreen assay is amenable to 384-well and 1536-well plate formats for HTS. Human his6-c-Myc and his6-Max were used with biotinylated DNA containing a single Ebox sequence (biotin[…]) purchased from MWG Operon. Free c-Myc was generated from his6-c-Myc through thrombin cleavage of the his6 tag. For 384-well plate assays, 10 μL of a 2× solution of free c-Myc (25 nM final), Ni++-coated Acceptor Bead (25 μg/ml final), and biotinylated Ebox oligo (10 nM final) were added to 384-well plates with a Biotek EL406 liquid handler. 100 nL of compounds from stock plates were added by pin transfer using a Janus Workstation (PerkinElmer), allowing the compounds to interact with c-Myc prior to c-Myc binding with Max. In the current assay, DMSO was not allowed to exceed 2% v/v of the assay. 10 μl of 2× master mix containing streptavidin-coated donor beads (25 μg/ml final) and his6-Max (1.25 nM final) were added. AlphaScreen measurements were performed on an Envision 2104 (PerkinElmer) utilizing the manufacturer's protocol. The assay can also be performed in 1536-plate format with 8 μL total volume using two 4 μL additions (instead of […] and 10 μL respectively).
Assays are performed with minor modifications from the manufacturer's protocol (PerkinElmer). Both master mixes were made in room temperature assay buffer (50 mM HEPES, 150 mM NaCl, 0.2% w/v BSA, 0.02% w/v Tween20, 40 μg/ml glycogen, 500 μM DTT, pH 8.0, DTT and glycogen added fresh). Alpha beads were added to respective master solutions and wrapped in foil. All subsequent steps were performed in low light conditions. Solution 1: 2× solution of components with final concentrations of cMyc (25 nM), Ni-coated Acceptor Bead (25 μg/ml), and biotinylated Ebox oligo (10 nM). Solution 2: 2× solution of streptavidin-coated donor beads (25 μg/ml final) and his6-Max (1.25 nM final). […] Solution 1 were added to 384-well plate (AlphaPlate-384, PerkinElmer) with Biotek EL406 liquid handler and the plates were centrifuged at 1000 rpm for 1 minute. 100 nL of compounds from stock plates were added by pin transfer using a Janus Workstation. 10 μL Solution 2 were added with the liquid handler. Plates were sealed with foil to block light exposure and prevent evaporation. Plates were centrifuged at 1000 rpm for 1 minute followed by 2 hour incubation. AlphaScreen measurements were performed on an Envision 2104 utilizing the manufacturer's protocol. Excitation was at 680 nm for donor bead release of singlet oxygen and emission was read with a bandpass filter from 520-620 nm. Glycogen: Roche Diagnostics #10901393001. Plate 1536: Perkin Elmer, 6004350. Plate 384: Perkin Elmer, 6005350. Nickel-His Alpha Beads: 6760619R.

[3] = test system: MM1S cells; assay: Cell viability assay (ATPlite), MM1S; type: cell-based, human; conditions: cell viability, three days, ATPlite, NA: inactive under assay conditions
Protocol: as §1, §2, §3

[4] = test system: H2171 cells; assay: Cell viability assay (ATPlite), H2171; type: cell-based, human; conditions: cell viability, three days, ATPlite, NA: inactive under assay conditions
Protocol: as §1, §2, §3

[5] = class symbols, NA: not active under assay conditions, read-out: Myc/Max IC50
[6] = c-Myc/Max/Ebox DNA AlphaScreen, NA: inactive under assay conditions, read-out: Biochemical IC50

c-Myc/Max/Ebox DNA, sequence (P01106 16-454): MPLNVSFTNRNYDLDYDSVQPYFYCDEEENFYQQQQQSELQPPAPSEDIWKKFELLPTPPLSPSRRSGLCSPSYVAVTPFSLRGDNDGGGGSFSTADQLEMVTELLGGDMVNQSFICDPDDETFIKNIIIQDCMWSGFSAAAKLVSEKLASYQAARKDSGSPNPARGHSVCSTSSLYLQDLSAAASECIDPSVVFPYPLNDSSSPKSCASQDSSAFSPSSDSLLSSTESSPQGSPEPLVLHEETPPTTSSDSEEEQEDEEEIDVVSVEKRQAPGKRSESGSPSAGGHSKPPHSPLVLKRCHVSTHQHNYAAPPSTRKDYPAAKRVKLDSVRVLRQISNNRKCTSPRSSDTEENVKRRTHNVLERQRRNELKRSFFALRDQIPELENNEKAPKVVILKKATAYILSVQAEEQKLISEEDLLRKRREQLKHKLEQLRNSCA

Row | SMILES | EC50 ([1]; Homo sapiens, Jurkat) | IC50 [2, 5] | EC50 ([3]; Homo sapiens, MM1.S, 72 h) | IC50 [2, 6] | EC50 ([4]; Homo sapiens, NCI-H2171, 72 h) | also measured
1 | Cc1ccc(C)n1-c1cc(-c2nnc(-c3ccc(C(=O)O)cc3)o2)ccc1C(=O)O [Compound 206] | 10 to 100 µM | 10 to 100 µM |  |  |  | 
2 | Cc1ccc(C)n1-c1ncccc1C(=O)NS(C)(=O)=O [Compound 187] | ≥ 100 µM | ≥ 100 µM |  |  |  | 
3 | Cc1ccc(C)n1-c1cc(-c2nnc(-c3cccc(C(=O)NS(C)(=O)=O)c3)o2)ccc1C(=O)O [Compound 222] | 10 to 100 µM | 10 to 100 µM |  |  |  | 
4 | Cc1ccccc1C1CCCN(C(=O)c2ccc(C(=O)O)c(-n3c(C)ccc3C)c2)C1 (stereo not shown) [Compound 200] | 10 to 100 µM | ≥ 100 µM |  |  |  | 
5 | Cc1ccc(C)n1-c1cc(C(=O)N2CCN(C(=O)c3cncc(F)c3)CC2)ccc1C(=O)O [Compound 226] | ≥ 100 µM | 10 to 100 µM |  |  |  | 
6 | Cc1ccc(C)n1-c1cc(C(=O)N2CCCC(c3ccc(C(=O)O)cc3)C2)ccc1C(=O)O (stereo not shown) [Compound 210] |  | 10 to 100 µM |  |  |  | EC50 [1]: ≥ 100 µM
7 | Cc1ccc(C)n1-c1cc(C(=O)N2CCN(c3cccc(C(=O)O)c3)CC2)ccc1C(=O)O [Compound 195] | ≥ 100 µM | < 1 µM |  |  |  | 
8 | Cc1ccc(C)n1-c1cc(C(=O)N2CCN(c3cccnc3)CC2)ccc1C(=O)O [Compound 194] | 10 to 100 µM | ≥ 100 µM |  |  |  | 
9 | Cc1ccc(C)n1-c1cc(C(=O)N2CCCC(c3ccc(Cl)cc3)C2)ccc1C(=O)O (stereo not shown) [Compound 201] | 10 to 100 µM | 10 to 100 µM |  |  |  | 
10 | COc1ccc(C2CCCN(C(=O)c3ccc(C(=O)O)c(-n4c(C)ccc4C)c3)C2)cc1 (stereo not shown) [Compound 185] | ≥ 100 µM | 10 to 100 µM |  |  |  | 
11 | Cc1ccc(C)n1-c1cc(C(=O)N/N=C/c2ccc3c(c2)OCCN3C)ccc1C(=O)O [Compound 89] |  |  | 92.4 µM | 38 µM | 198 µM | 
12 | Cc1ccc(C)n1-c1cc(C(=O)N2CCCC(c3ccc(C(=O)NS(C)(=O)=O)cc3)C2)ccc1C(=O)NS(C)(=O)=O (stereo not shown) [Compound 186] | ≥ 100 µM | ≥ 100 µM |  |  |  | 
13 | Cc1nccn1-c1ccccc1C(=O)O [Compound 26] |  |  | 11.5 µM | 442 µM | 6.27 µM | 
14 | CCOC(=O)c1ccc(-n2c(C)ccc2-c2ccccc2)cc1 [Compound 13] |  |  | 69.9 µM | 144 µM | 54.4 µM | 
15 | O=C(O)c1ccccc1-n1c(Br)ccc1C(F)(F)F [Compound 197] | ≥ 100 µM | 10 to 100 µM |  |  |  | 
16 | COc1cccc(C2CCCN(C(=O)c3ccc(C(=O)O)c(-n4c(C)ccc4C)c3)C2)c1 (stereo not shown) [Compound 189] | 10 to 100 µM | 1 to 10 µM |  |  |  | 
17 | Cc1ccc(C(F)(F)F)n1-c1ccccc1C(=O)O [Compound 192] | 10 to 100 µM | ≥ 100 µM |  |  |  | 
18 | Cc1ccc(C)n1-c1cc(C(=O)N2CCN(c3ccc(C(=O)O)cc3)CC2)ccc1C(=O)O [Compound 199] | 10 to 100 µM | 1 to 10 µM |  |  |  | 
19 | Cc1ccc(C)n1-c1cc(C(=O)N2CCC=C(c3ccc(C(=O)O)cc3)C2)ccc1C(=O)O [Compound 202] | 10 to 100 µM | 10 to 100 µM |  |  |  | 
20 | Cc1ccc(C)n1-c1cc2ccccc2cc1C(=O)O [Compound 129] |  |  | 264 µM | 31 µM | 151 µM | 
21 | CC(=O)OCOC(=O)c1ccccc1-n1cccc1 [Compound 150] |  |  | 99.1 µM | 150 µM | 28 µM | 
22 | Cc1ccc(C)n1-c1cc(C(=O)N2CCN(C(=O)c3cccnc3)CC2)ccc1C(=O)O [Compound 216] | ≥ 100 µM | 10 to 100 µM |  |  |  | 

Row | SMILES | EC50 ([1]; Homo sapiens, Jurkat) | IC50 [2, 5] | EC50 ([3]; Homo sapiens, MM1.S, 72 h) | IC50 [2, 6] | EC50 ([4]; Homo sapiens, NCI-H2171, 72 h) | also measured
23 | Cc1c(C)c(C)n(-c2ccc(C(=O)O)c(O)c2)c1C [Compound 139] |  |  | 329 µM | 96.4 µM | 564 µM | 
24 | Cc1ccc(-c2ccccc2)n1-c1ccc(O)c(C(=O)O)c1 [Compound 12] |  |  | 79.3 µM | 61.8 µM | 123 µM | 
25 | CCOC(=O)c1ccc(-n2c(CCC(=O)O)ccc2-c2cccs2)cc1O [Compound 22] |  |  | 71.7 µM | 124 µM | 73.4 µM | 
26 | COc1cc(C(=O)OCOC(C)=O)c(-n2c(C)ccc2C)cc1OC [Compound 160] |  |  | 211 µM | 94.6 µM | 104 µM | 
27 | Cc1ccc(C)n1-c1ccccc1S(=O)(=O)O [Compound 128] |  |  | 243 µM | 252 µM | 303 µM | 
28 | CC(=O)Nc1ccc(-n2c(C)ccc2C)c(C(=O)O)c1 [Compound 155] |  |  | 222 µM | 1.8 µM | 247 µM | 
29 | Cc1cccc(Nc2ccccc2C(=O)O)c1C [Compound 153] |  |  | 185 µM | 403 µM | 93.5 µM | 
30 | CC(=O)OCOC(=O)c1ccccc1-n1c(C)ccc1C [Compound 149] |  |  |  | 101 µM |  | EC50 [3]: 71.4 µM; EC50 [4]: 20.7 µM
31 | O=C(O)c1ccc(-n2cccc2)cc1O [Compound 16] |  |  | 130 µM | 165 µM | 104 µM | 
32 | Cc1ccc(C)n1-c1cc(C(=O)N/N=C/c2ccccc2)ccc1C(=O)O [Compound 71] |  |  | 261 µM | 103 µM | 48.4 µM | 
33 | Cc1ccc(C)n1-c1cc(C(=O)N/N=C/c2ccc(F)c(F)c2)ccc1C(=O)O [Compound 99] |  |  | 492 µM | 4.82 µM | 106 µM | 
34 | Cc1ccc(C)n1-c1ccccc1/C=C/C(=O)O [Compound 69] |  |  | 39 µM | 156 µM | 115 µM | 
35 | CCCOC(=O)c1ccc(-n2c(CCC(=O)O)ccc2-c2ccccc2)cc1O [Compound 21] |  |  | 75.3 µM | 96 µM | 89.1 µM | 
36 | CCOC(=O)c1ccc(-n2c(CCC(=O)O)ccc2-c2ccccc2)cc1O [Compound 25] |  |  | 78.3 µM | 139 µM | 101 µM | 
37 | CC(=O)OCOC(=O)c1ccccc1N1CCOCC1 [Compound 152] |  |  | 71.9 µM | 2480 µM | 22.8 µM | 
38 | COc1cc(C(=O)O)c(-n2c(C)ccc2C)cc1OC [Compound 145] |  |  | 161 µM | 13.5 µM | 83.8 µM | 
39 | Cc1ccc(C)n1-c1ccccc1CC(=O)O [Compound 68] |  |  | 340 µM | 195 µM | 52.9 µM | 
40 | CC(=O)OCOC(=O)c1ccc(Cl)cc1-n1c(C)ccc1C [Compound 158] |  |  | 238 µM | 206 µM | 70.3 µM | 
41 | Cc1ccc(-c2ccc(-n3c(C)ccc3C)c(C(=O)O)c2)cc1 [Compound 148] |  |  | 1690 µM | 941 µM | 268 µM | 
42 | Cc1ccc(C)n1-c1cc(C(=O)NCCN2CCN(C)CC2)ccc1C(=O)O [Compound 74] |  |  | 27600 µM | 104 µM | 120 µM | 
43 | CC(=O)OCOC(=O)c1ccc(-n2c(C)ccc2C)cc1O [Compound 143] |  |  |  | 91.4 µM |  | EC50 [3]: 161 µM; EC50 [4]: 66.1 µM
44 | Cc1cc(Br)c(-n2c(C)ccc2C)c(C(=O)O)c1 [Compound 130] |  |  | 300 µM | 51.5 µM | 224 µM | 
